US20190008973A1, “INTRALIPID-IODINE FOR IMAGING” (priority 2017, published 2019)
Structures can show the parent of a compound that is named as a salt. Where two headings read alike, the source gives them in different places.

How the values were obtained:
[1] = tested on: PLA(2) and PLC; conditions: rat, in vivo; cited from earlier work
[2] = tested on: propofol-mediated hypotension; conditions: cited from earlier work
[3] = tested on: hippocampal slices; conditions: cited from earlier work
[4] = tested on: acetylcholinesterase (AChE) / neuronal degeneration; conditions: cited from earlier work; for serum AChE: rat, in vivo
[5] = tested on: free fatty acid efflux; conditions: cited from earlier work; for I/R-evoked FFA efflux: 20-min ischemia, 40 min reperfusion
[6] = tested on: post operative delirium; assay: Lipid Emulsion Treatment of post operative delirium/POCD, 4 case reports; format: in vivo, human; conditions: case 1, 60 min
[7] = tested on: myocardial ischemia-reperfusion injury; conditions: cited from earlier work
[8] = tested on: fallopian tube and adnexal tissue; conditions: cited from earlier work
[9] = tested on: post ischaemic stunned myocardium; conditions: dog, in vivo; cited from earlier work
[10] = tested on: soft tissue anesthesia (STA); conditions: in vivo; cited from earlier work
[11] = tested on: ischemia-reperfusion (IR) injury; conditions: cited from earlier work
[12] = target: T1, mitochondrial ATPase (Homo sapiens, UniProt P06576+P25705); conditions: cited from earlier work; for kind of inhibition: reciprocal plots
T1 construct: mitochondrial ATPase prepared by the chloroform extraction method; from tissue; host or cells: mitochondria

[13] = tested on: lipid-dependent mitochondrial respiration (carnitine exchange); conditions: cited from earlier work
[14] = tested on: total spinal anesthesia; conditions: in vivo; cited from earlier work
[15] = tested on: spinal anesthesia; conditions: cited from earlier work
[16] = tested on: bupivacaine-induced asystole; conditions: cited from earlier work
[17] = tested on: brachial plexus; conditions: in vivo; cited from earlier work
[18] = tested on: bupivacaine cardiotoxicity; parameters: AUC of total bupivacaine, mean (standard deviation) / AUC of the lipid-un-entrapped bupivacaine portion: concentration or dose not given beside the values; conditions: cited from earlier work
[19] = tested on: brachial plexus; conditions: 30 ml; cited from earlier work
[20] = plasma-Intralipid mixture, n=3; cited from earlier work
[21] = tested on: total spinal anesthesia; conditions: in vivo; cited from earlier work; remark: listed apart in the source
[22] = tested on: bupivacaine mortality; conditions: cited from earlier work
[23] = tested on: brachial plexus; conditions: in vivo; cited from earlier work; remark: listed apart in the source
[24] = tested on: brachial plexus; conditions: 150 μg clonidine or 200 μg epinephrine with 0.25% bupivacaine; cited from earlier work
[25] = target: T2, N-methyl-D-aspartate receptor channels (Mus musculus, UniProt P35438); conditions: cited from earlier work
T2 construct: cultured cortical neurons from the mouse; endogenous in cells; host or cells: cultured mouse cortical neurons

[26] = tested on: spinal cord ischemia and reperfusion; conditions: intravenous; cited from earlier work
[27] = tested on: traumatic brain injury; conditions: cited from earlier work

T1 sequence (P25705 44-553): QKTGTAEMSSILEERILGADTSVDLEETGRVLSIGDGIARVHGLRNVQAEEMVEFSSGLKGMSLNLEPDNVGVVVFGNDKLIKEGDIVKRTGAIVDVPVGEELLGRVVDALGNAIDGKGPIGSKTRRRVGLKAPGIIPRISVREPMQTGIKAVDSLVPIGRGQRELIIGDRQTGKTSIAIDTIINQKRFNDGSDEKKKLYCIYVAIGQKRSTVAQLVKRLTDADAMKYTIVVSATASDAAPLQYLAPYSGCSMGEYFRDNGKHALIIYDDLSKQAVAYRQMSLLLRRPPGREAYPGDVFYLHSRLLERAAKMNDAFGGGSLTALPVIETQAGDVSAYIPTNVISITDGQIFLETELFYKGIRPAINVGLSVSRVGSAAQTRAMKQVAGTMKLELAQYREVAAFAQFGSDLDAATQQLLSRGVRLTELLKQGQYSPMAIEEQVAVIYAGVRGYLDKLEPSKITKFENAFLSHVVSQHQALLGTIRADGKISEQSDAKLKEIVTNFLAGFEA
T1 sequence (P06576 48-529): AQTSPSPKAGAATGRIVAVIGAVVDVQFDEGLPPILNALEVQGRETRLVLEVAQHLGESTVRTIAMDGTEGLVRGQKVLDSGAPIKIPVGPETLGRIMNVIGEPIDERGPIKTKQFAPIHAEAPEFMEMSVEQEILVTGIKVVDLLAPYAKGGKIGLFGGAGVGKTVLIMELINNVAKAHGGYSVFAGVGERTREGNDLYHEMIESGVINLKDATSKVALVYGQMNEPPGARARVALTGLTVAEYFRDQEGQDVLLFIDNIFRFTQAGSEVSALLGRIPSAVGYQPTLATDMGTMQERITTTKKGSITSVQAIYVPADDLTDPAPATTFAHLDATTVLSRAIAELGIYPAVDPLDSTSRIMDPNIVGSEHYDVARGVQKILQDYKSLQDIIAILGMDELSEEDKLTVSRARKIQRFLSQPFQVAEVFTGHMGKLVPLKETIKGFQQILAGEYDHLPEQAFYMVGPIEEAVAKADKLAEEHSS
T1 sequence (P36542 26-298 partner): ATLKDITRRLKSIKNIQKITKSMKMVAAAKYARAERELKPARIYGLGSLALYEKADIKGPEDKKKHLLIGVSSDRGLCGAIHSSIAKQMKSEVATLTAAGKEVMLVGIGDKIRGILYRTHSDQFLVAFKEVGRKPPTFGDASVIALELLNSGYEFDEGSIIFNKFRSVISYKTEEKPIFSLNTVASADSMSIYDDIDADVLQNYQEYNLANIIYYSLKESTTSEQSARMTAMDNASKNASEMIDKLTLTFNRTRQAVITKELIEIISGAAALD
T1 sequence (P30049 23-168 partner): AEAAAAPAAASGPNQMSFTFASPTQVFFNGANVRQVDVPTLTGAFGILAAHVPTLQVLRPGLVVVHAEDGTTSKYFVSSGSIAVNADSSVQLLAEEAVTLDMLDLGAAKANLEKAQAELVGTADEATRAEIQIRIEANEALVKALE
T1 sequence (P56381 2-51 partner limits assumed): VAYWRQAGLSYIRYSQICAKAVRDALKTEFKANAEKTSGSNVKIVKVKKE

4-bromophenylacyl bromide [BPB]
FFA efflux during ischemia-reperfusion injury [1]: significantly inhibited FFA efflux

20% BSA
effect on propofol induced cortical burst suppression ([2]; EEG): −2+/−1%

CCCCC/C=C\C/C=C\C/C=C\C/C=C\CCCC(=O)O [Arachidonic acid, 5,8,11,14-eicosateraenoic acid]
protection from glutamate and H(2)O(2) injury ([3]; 1-10 microM): dose dependently protected

CC(C)(c1ccc(OCC2CO2)cc1)c1ccc(OCC2CO2)cc1 (stereo not drawn) [BADGE, bisphenol A diglycidyl ether]
effect on neuroprotection by arachidonic acid [3]: completely abolished

O=C1O/C(=C/Br)CCC1c1cccc2ccccc12 (stereo not drawn) [BEL, bromoenol lactone]
FFA efflux during ischemia-reperfusion injury [1]: had only minimal effects on FFA efflux

O=C(/C=C/c1ccc(O)c(O)c1)OCCc1ccccc1 [CAPE, caffeic acid phenethyl ester]
neuronal degeneration ([4]; histologic examination): significant effect on protection of neuronal degeneration
serum AChE [4]: inhibited AChE

C[C@@H]1C[C@@H]([C@H](O)CC2CC(=O)NC(=O)C2)C(=O)[C@@H](C)C1 [CHX, cycloheximide]
effect on neuroprotection by arachidonic acid ([3]; BADGE 100 microM, CHX 30 microM): completely abolished

O=C1CN(/N=C/c2ccc(-c3ccc([N+](=O)[O-])cc3)o2)C(O)=N1 [Dantrolene]
I/R-evoked FFA efflux [5]: significantly inhibited I/R-evoked release of docosahexaenoic, arachidonic, linoleic and oleic acids

O=C(CCCN1CCC(O)(c2ccc(Cl)cc2)CC1)c1ccc(F)cc1 [Haloperidol]
agitation after conventional sedatives [6]: had not improved

FC(F)OC(Cl)C(F)(F)F (stereo not drawn) [IS, isoflurane]
plasma lactate dehydrogenase ([7]; 3 h after reperfusion, group C 676+/−82): 456+/−58 U/L
plasma creatine kinase ([7]; 3 h after reperfusion, group C 2373+/−529): 1725+/−230 U/L
myocardial infarct size 3 h after reperfusion ([7]; group C 39%+/−6%): 20%+/−8%

CNC(=O)c1c(I)c(NC(C)=O)c(I)c(C(=O)O)c1I.CNC[C@H](O)[C@@H](O)[C@H](O)[C@H](O)CO [Iothalamate meglumine 60%, iothalamate meglumine]
pathologic response in tube or peritoneal cavity ([8]; rabbit, in vivo): mild inflammatory infiltrate, mucosal edema, giant cell reaction, and periovarian adhesions

CC(=O)N(CC(O)CO)c1c(I)c(C(=O)NCCO)c(I)c(C(=O)NCC(O)CO)c1I (stereo not drawn) [Ioxilan, ioxilan]
pathologic response in tube or peritoneal cavity ([8]; histology): no pathologic response

N[C@H](C(=O)O)c1ccc(O)cc1 [Oxfenicine, oxfenicine]
effect of pretreatment on benefit of Intralipid [9]: completely abolished

Cc1ccc(N(CC2=NCCN2)c2cccc(O)c2)cc1 [PM (OraVerse), phentolamine mesylate]
duration of residual STA [10]: significantly decrease the duration of residual STA
safety outcomes in school-based dental clinic [10]: improve safety outcomes

Cn1cc(C2=C(c3ccc(Cl)cc3Cl)C(=O)NC2=O)c2ccccc21 [SB216763]
cardioprotection in sham-operated hearts exposed to IR ([11]; 1% ILP 15 min): conferred cardioprotection
cardioprotection in hypertrophied myocardium [11]: failed to exert cardioprotection

C/C=C(/C)C(=O)O[C@H]1C(C)=C2[C@H]([C@@H]1OC(=O)CCCCCCC)[C@@](C)(OC(C)=O)C[C@H](OC(=O)CCC)[C@@]1(O)[C@H]2OC(=O)[C@@]1(C)O [Thapsigargin]
FFA efflux in the absence of ischemia ([5]; rat, in vivo): elicited significant elevations in the efflux of myristic, arachidonic and linoleic acids

COc1ccc2c(c1)CC[C@@H]1[C@@H]2CC[C@]2(C)[C@@H](NCCCCCCN3C(=O)C=CC3=O)CC[C@@H]12 [U73122]
FFA efflux during ischemia-reperfusion injury [1]: had no observed effect

C1CCC[C@H]2CCCN3CC[C@@H](CCCCCC[C@@H]4CCCN5CC[C@@H](CC1)O[C@@H]45)O[C@@H]23 [Xestospongin C]
I/R-evoked FFA efflux [5]: failed to affect I/R-evoked FFA efflux

CCOC(=O)c1ccc(N)cc1 [benzocaine]
inhibition of the enzyme [12]: inhibits the enzyme at all pH values

CN1[C@H]2CC[C@@H]1[C@@H](C(=O)O)[C@@H](OC(=O)c1ccccc1)C2 [benzoylecgonine]
lipid-dependent mitochondrial respiration [13]: not

CCCCN1CCCCC1C(=O)Nc1c(C)cccc1C (stereo not drawn) [bupivacaine]
mean duration of action [14]: 1.511 to 3 h
Duration of procedures it is appropriate for ([15]; long acting spinal anesthetic): 2 to 2.5 h
Onset ([15]; spinal anesthetic, longer with isobaric forms): 5 to 10 min
concentration of bupivacaine in plasma, mean+/−SE ([16]; 30% Intralipid): 212+/−45 micrograms per millilitre
median dose of bupivacaine producing asystole ([16]; after saline pretreatment): 17.7 milligrams per kilogram
concentration of bupivacaine in plasma, mean+/−SE ([16]; saline): 93.3+/−7.6 micrograms per millilitre
muscle relaxation judged as excellent [17]: 30/49
AUC of the lipid-un-entrapped bupivacaine portion ([18]; after Intralipid): 97.0(14.5) mg·min/L
AUC of total bupivacaine, mean (standard deviation) ([18]; after Intralipid): 105.2(13.6) mg·min/L
un-entrapped AUC lower than total bupivacaine ([18]; after Intralipid): 8%
AUC of total bupivacaine, mean (standard deviation) ([18]; after Ringer's acetate): 88.1(7.1) mg·min/L
duration of motor block [19]: 12.94 h
duration of sensory block [19]: 11.58 h
onset of motor block [19]: 21.45 ± 4.45 min
onset of sensory block [19]: 16.85 ± 6.67 min
mean lipid:aqueous ratio of concentrations [20]: 11.9+/−1.77
further time to consciousness [21]: 65 min
time to spontaneous respiration [21]: 120 min
dose of bupivacaine required to cause death in 50% of animals ([22]; resuscitation with 30% Intralipid): 18.5 mg/kg
dose of bupivacaine required to cause death in 50% of animals ([22]; resuscitation with saline): 12.5 mg/kg
patients requiring supplementation [23]: 9 of the 22

C[N+](C)(C)CC[N+]1(C)Cc2c(Cl)c(Cl)c(Cl)c(Cl)c2C1 [chlorisondamine]
lowering of MAP ([2]; 2.5 mg/kg IV): 56+/−3%

CN(C)CCCN1c2ccccc2Sc2ccc(Cl)cc21 [chlorpromazine]
kind of inhibition [12]: non-competitive

CCOP(=S)(OCC)Oc1nc(Cl)c(Cl)cc1Cl [chlorpyriphos, Chlorpyriphos]
serum AChE [4]: inhibited AChE

Clc1cccc(Cl)c1N=C1NCCN1 [clonidine, clonidine hydrochloride]
duration of block [24]: 994.2 ± 34.2 min

CCOC(=O)[C@@H]1C2CCC(C[C@@H]1OC(=O)c1ccccc1)N2C (stereo partly drawn) [cocaethylene]
lipid-dependent mitochondrial respiration [13]: inhibited

CCCCOc1cc(C(=O)NCCN(CC)CC)c2ccccc2n1 [dibucaine]
kind of inhibition [12]: non-competitive

CNC(=O)c1c(I)c(NC(C)=O)c(I)c(C(=O)O)c1I.CNC[C@H](O)[C@@H](O)[C@H](O)[C@H](O)CO [iothalamate meglumine 30%, iothalamate meglumine]
pathologic response in tube or peritoneal cavity ([8]; rabbit, in vivo): no pathologic response

CNC1(c2ccccc2Cl)CCCCC1=O (stereo not drawn) [ketamine]
effect on emulsion-induced currents [25]: inhibited

CCN(CC)CC(=O)Nc1c(C)cccc1C [lidocaine]
kind of inhibition [12]: non-competitive
further time to consciousness [21]: 80 min
time to spontaneous respiration [21]: 45 min

Cc1ncc2n1-c1ccc(Cl)cc1C(c1ccccc1F)=NC2 [midazolam]
agitation after conventional sedatives [6]: had not improved

CCCC(C)C1(CC)C(=O)NC(=S)NC1=O (stereo not drawn) [thiopental]
injured animals [26]: 100%

CN1CCN(CCCN2c3ccccc3Sc3ccc(C(F)(F)F)cc32)CC1 [trifluoperazine]
I/R-evoked FFA efflux [5]: very effective in suppressing ischemia/reperfusion evoked release of all six FFAs

DL-AP5
effect on emulsion-induced currents [25]: inhibited

Ryanodine
I/R-evoked FFA efflux [5]: significantly enhanced ischemia/reperfusion-elicited efflux of linoleic acid

conjugated linoleic acids [CLA]
latency to find the hidden MWM platform ([27]; CCI-injured, saline 30.7±5.5): 66.8 ± 10.6 s
latency to find the hidden Morris Water Maze platform ([27]; Sham, saline 8.8±1.7): 40.3 ± 13.0 s

ecgonine
lipid-dependent mitochondrial respiration [13]: not

picrotoxin
effect on emulsion-induced currents [25]: not affected
